According to US11053204B2, “Pyrimidinyloxy benzene derivatives as herbicides” (FMC Corporation, priority 2015, dated 2021):

Columns and labels:
Type in all cases: in vivo
[1] = test system: nightshade (eastern black nightshade, Solanum ptycanthum); assay: Test C preemergence, plant response rating
[2] = test system: kochia (Kochia scoparia); assay: Test C preemergence, plant response rating
[3] = test system: barnyardgrass (Echinochloa crus-galli); assay: Test C preemergence, plant response rating; details: Preemergence
[4] = test system: johnsongrass (Sorghum halepense); assay: Test C preemergence, plant response rating
[5] = test system: surinam grass (Brachiaria decumbens); assay: Test C postemergence, plant response rating
In short: (§1)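 Preemergence: seeds sown in loam–sand blend or silt loam and sprayed with test chemicals in a non-phytotoxic surfactant-containing solvent. Postemergence: potted plants at 2–18 cm (1–4-leaf stage) sprayed with the same formulation. After 13–15 d in greenhouse, visual rating versus controls on 0 (no effect) to 100 (complete control) scale.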

[6] = test system: speedwell (bird's-eye speedwell, Veronica persica); assay: Test C postemergence, plant response rating; details: for Speedwell plant response rating: scale 0 to 100 (0 no effect, 100 complete control)
In short: as §1

[7] = test system: geranium, cutleaf (cutleaf geranium, Geranium dissectum); assay: Test C postemergence, plant response rating; details: for Geranium, Cutleaf plant response rating: scale 0 to 100 (0 no effect, 100 complete control)
In short: as §1

[8] = test system: field poppy (Papaver rhoeas); assay: Test C postemergence, plant response rating; details: for Field Poppy plant response rating: scale 0 to 100 (0 no effect, 100 complete control)
In short: as §1

[9] = test system: field violet (Viola arvensis); assay: Test C postemergence, plant response rating; details: for Field Violet plant response rating: scale 0 to 100 (0 no effect, 100 complete control)
In short: as §1

[10] = test system: pigweed, palmer (palmer pigweed, Amaranthus palmeri); assay: Test C postemergence, plant response rating; details: for Pigweed, Palmer plant response rating: scale 0 to 100 (0 no effect, 100 complete control)
In short: as §1

[11] = test system: wild mustard (Sinapis arvensis); assay: Test C postemergence, plant response rating; details: for Mustard, Wild plant response rating: scale 0 to 100 (0 no effect, 100 complete control)
In short: as §1

[12] = test system: Canada thistle (Cirsium arvense); assay: Test C postemergence, plant response rating; details: for Canada Thistle plant response rating: scale 0 to 100 (0 no effect, 100 complete control)
In short: as §1

[13] = test system: buckwheat, wild (wild buckwheat, Polygonum convolvulus); assay: Test C postemergence, plant response rating; details: for Buckwheat, Wild plant response rating: scale 0 to 100 (0 no effect, 100 complete control)
In short: as §1

[14] = test system: johnsongrass (Sorghum halepense); assay: Test C postemergence, plant response rating; details: for Johnsongrass plant response rating: scale 0 to 100 (0 no effect, 100 complete control)
In short: as §1

[15] = test system: wild poinsettia (Euphorbia heterophylla); assay: Test C postemergence, plant response rating; details: for Poinsettia, Wild plant response rating: scale 0 to 100 (0 no effect, 100 complete control)
In short: as §1

[16] = test system: windgrass (Apera spica-venti); assay: Test C postemergence, plant response rating
In short: as §1

[17] = test system: nightshade (eastern black nightshade, Solanum ptycanthum); assay: Test C postemergence, plant response rating; details: for Nightshade plant response rating: scale 0 to 100 (0 no effect, 100 complete control)
In short: as §1

[18] = test system: galium (catchweed bedstraw, Galium aparine); assay: Test C preemergence, plant response rating
[19] = 125 g ai/ha, scale 0 to 100 (0 no effect, 100 complete control)

For `N#CC(CCCC(F)(F)F)c1ccccc1Oc1ncc(Cl)cn1` (stereo not drawn) [Compound 144], the “Plant response rating, Nightshade” value ([1]; 31 g ai/ha, scale 0 to 100) was 65, the “Plant response rating, Nightshade” value ([1]; 62 g ai/ha, scale 0 to 100) was 90 and the “Plant response rating, Nightshade” value ([1]; 125 g ai/ha, scale of 0 to 100) was 100. The “Plant response rating, Kochia” value ([2]; 31 g ai/ha, scale 0 to 100) was 90, the “Plant response rating, Kochia” value ([2]; 62 g ai/ha, scale 0 to 100) was 100 and the “Plant response rating, Kochia” value ([2]; 125 g ai/ha, scale of 0 to 100) was 100. For the same compound, the “Plant response rating, Barnyardgrass” value ([3]; 125 g ai/ha, scale of 0 to 100) was 95, the “Plant response rating, Barnyardgrass” value ([3]; 16 g ai/ha, scale 0 to 100) was 10 and the “Plant response rating, Barnyardgrass” value ([3]; 31 g ai/ha, scale 0 to 100) was 40. The “Plant response rating, Barnyardgrass” value ([3]; 62 g ai/ha, scale 0 to 100) was 70, the “Plant response rating, Johnsongrass” value ([4]; 31 g ai/ha, scale 0 to 100) was 10 and the “Plant response rating, Johnsongrass” value ([4]; 62 g ai/ha, scale 0 to 100) was 40. For the same compound, the “Plant response rating, Johnsongrass” value ([4]; 125 g ai/ha, scale of 0 to 100) was 70, the “Plant response rating, Surinam Grass” value ([5]; 16 g ai/ha, scale of 0 to 100) was 10 and the “Plant response rating, Surinam Grass” value ([5]; 31 g ai/ha, scale 0 to 100) was 20. The “Surinam Grass plant response rating” value [5, 19] was 25, the “Plant response rating, Speedwell” value ([6]; 16 g ai/ha, scale of 0 to 100) was 60 and the “Plant response rating, Speedwell” value ([6]; 31 g ai/ha, scale 0 to 100) was 70. For the same compound, the “Speedwell plant response rating” value ([6]; 62 g ai/ha) was 95, the “Speedwell plant response rating” value ([6]; 125 g ai/ha) was 95 and the “Plant response rating, Geranium, Cutleaf” value ([7]; 16 g ai/ha, scale of 0 to 100) was 15. For the same compound, the “Plant response rating, Geranium, Cutleaf” value ([7]; 31 g ai/ha, scale 0 to 100) was 20, the “Geranium, Cutleaf plant response rating” value ([7]; 62 g ai/ha) was 35 and the “Geranium, Cutleaf plant response rating” value ([7]; 125 g ai/ha) was 40. The “Plant response rating, Field Poppy” value ([8]; 16 g ai/ha, scale of 0 to 100) was 60, the “Plant response rating, Field Poppy” value ([8]; 31 g ai/ha, scale 0 to 100) was 80 and the “Field Poppy plant response rating” value ([8]; 62 g ai/ha) was 90. The “Field Poppy plant response rating” value ([8]; 125 g ai/ha) was 100, the “Plant response rating, Field Violet” value ([9]; 16 g ai/ha, scale of 0 to 100) was 60 and the “Plant response rating, Field Violet” value ([9]; 31 g ai/ha, scale 0 to 100) was 65. For the same compound, the “Field Violet plant response rating” value ([9]; 62 g ai/ha) was 80, the “Field Violet plant response rating” value ([9]; 125 g ai/ha) was 90 and the “Plant response rating, Pigweed, Palmer” value ([10]; 16 g ai/ha, scale of 0 to 100) was 25. For the same compound, the “Plant response rating, Pigweed, Palmer” value ([10]; 31 g ai/ha, scale 0 to 100) was 35, the “Pigweed, Palmer plant response rating” value ([10]; 62 g ai/ha) was 40 and the “Pigweed, Palmer plant response rating” value ([10]; 125 g ai/ha) was 80. The “Plant response rating, Mustard, Wild” value ([11]; 16 g ai/ha, scale of 0 to 100) was 70, the “Plant response rating, Mustard, Wild” value ([11]; 31 g ai/ha, scale 0 to 100) was 70 and the “Mustard, Wild plant response rating” value ([11]; 62 g ai/ha) was 80. For the same compound, the “Mustard, Wild plant response rating” value ([11]; 125 g ai/ha) was 95, the “Plant response rating, Canada Thistle” value ([12]; 16 g ai/ha, scale of 0 to 100) was 90 and the “Plant response rating, Canada Thistle” value ([12]; 31 g ai/ha, scale 0 to 100) was 60. The “Canada Thistle plant response rating” value ([12]; 62 g ai/ha) was 90, the “Canada Thistle plant response rating” value ([12]; 125 g ai/ha) was 90 and the “Plant response rating, Buckwheat, Wild” value ([13]; 16 g ai/ha, scale of 0 to 100) was 70. The “Plant response rating, Buckwheat, Wild” value ([13]; 31 g ai/ha, scale 0 to 100) was 55, the “Buckwheat, Wild plant response rating” value ([13]; 62 g ai/ha) was 80 and the “Buckwheat, Wild plant response rating” value ([13]; 125 g ai/ha) was 95. For the same compound, the “Plant response rating, Johnsongrass” value ([14]; 16 g ai/ha, scale of 0 to 100) was 5, the “Plant response rating, Johnsongrass” value ([14]; 31 g ai/ha, scale 0 to 100) was 5 and the “Johnsongrass plant response rating” value ([14]; 62 g ai/ha) was 5. The “Johnsongrass plant response rating” value ([14]; 125 g ai/ha) was 5, the “Plant response rating, Poinsettia, Wild” value ([15]; 16 g ai/ha, scale of 0 to 100) was 30 and the “Plant response rating, Poinsettia, Wild” value ([15]; 31 g ai/ha, scale 0 to 100) was 35. The “Poinsettia, Wild plant response rating” value ([15]; 62 g ai/ha) was 50, the “Poinsettia, Wild plant response rating” value ([15]; 125 g ai/ha) was 60 and the “Plant response rating, Windgrass” value ([16]; 16 g ai/ha, scale of 0 to 100) was 10. The “Plant response rating, Windgrass” value ([16]; 31 g ai/ha, scale 0 to 100) was 10, the “Windgrass plant response rating” value [16, 19] was 30 and the “Plant response rating, Nightshade” value ([17]; 16 g ai/ha, scale of 0 to 100) was 65. The “Plant response rating, Nightshade” value ([17]; 31 g ai/ha, scale 0 to 100) was 75, the “Nightshade plant response rating” value ([17]; 62 g ai/ha) was 75 and the “Nightshade plant response rating” value ([17]; 125 g ai/ha) was 90. For the same compound, the “Plant response rating, Galium” value ([18]; 31 g ai/ha, scale 0 to 100) was 50, the “Plant response rating, Galium” value ([18]; 62 g ai/ha, scale 0 to 100) was 50 and the “Plant response rating, Galium” value ([18]; 125 g ai/ha, scale of 0 to 100) was 55.
